# Reference: PubChem BioAssay (NCI)
#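 A five-concentration, 48-hour dose response in 96-well plates underlies each endpoint, interpolated linearly between surrounding concentrations. At the GI50, growth is halved. TGI denotes the concentration required for complete inhibition of growth.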
# Tests used:
# Experiment in all cases: growth of human tumour cells (NCI), 48 h
# A498 renal = system: A498 renal
# A549 NSCLC = system: A549 NSCLC
# ACHN renal = system: ACHN renal
# BT-549 breast = system: BT-549 breast
# CAKI-1 renal = system: CAKI-1 renal
# CCRF-CEM leukemia = system: CCRF-CEM leukemia
# COLO 205 colon = system: COLO 205 colon
# DU-145 prostate = system: DU-145 prostate
# EKVX NSCLC = system: EKVX NSCLC
# HCC-2998 colon = system: HCC-2998 colon
# HCT-116 colon = system: HCT-116 colon
# HCT-15 colon = system: HCT-15 colon
# HL-60(TB) leukemia = system: HL-60(TB) leukemia
# HOP-62 NSCLC = system: HOP-62 NSCLC
# HOP-92 NSCLC = system: HOP-92 NSCLC
# HS 578T breast = system: HS 578T breast
# HT29 colon = system: HT29 colon
# IGROV1 ovarian = system: IGROV1 ovarian
# K-562 leukemia = system: K-562 leukemia
# KM12 colon = system: KM12 colon
# LOX IMVI melanoma = system: LOX IMVI melanoma
# M14 melanoma = system: M14 melanoma
# MALME-3M melanoma = system: MALME-3M melanoma
# MCF7 breast = system: MCF7 breast
# MDA-MB-231 breast = system: MDA-MB-231 breast
# MDA-MB-435 = system: MDA-MB-435
# MOLT-4 leukemia = system: MOLT-4 leukemia
# NCI-H226 lung = system: NCI-H226 lung
# NCI-H23 lung = system: NCI-H23 lung
# NCI-H460 lung = system: NCI-H460 lung
# NCI-H522 lung = system: NCI-H522 lung
# NCI/ADR-RES ovarian = system: NCI/ADR-RES ovarian
# OVCAR-3 ovarian = system: OVCAR-3 ovarian
# OVCAR-4 ovarian = system: OVCAR-4 ovarian
# OVCAR-5 ovarian = system: OVCAR-5 ovarian
# OVCAR-8 ovarian = system: OVCAR-8 ovarian
# PC-3 prostate = system: PC-3 prostate
# RPMI-8226 leukemia = system: RPMI-8226 leukemia
# RXF 393 renal = system: RXF 393 renal
# SF-268 CNS = system: SF-268 CNS
# SF-539 CNS = system: SF-539 CNS
# SK-MEL-2 melanoma = system: SK-MEL-2 melanoma
# SK-MEL-28 melanoma = system: SK-MEL-28 melanoma
# SK-MEL-5 melanoma = system: SK-MEL-5 melanoma
# SK-OV-3 ovarian = system: SK-OV-3 ovarian
# SN12C renal = system: SN12C renal
# SNB-19 CNS = system: SNB-19 CNS
# SNB-75 CNS = system: SNB-75 CNS
# SR leukemia = system: SR leukemia
# SW-620 colon = system: SW-620 colon
# T-47D breast = system: T-47D breast
# TK-10 renal = system: TK-10 renal
# U251 CNS = system: U251 CNS
# UACC-257 melanoma = system: UACC-257 melanoma
# UACC-62 melanoma = system: UACC-62 melanoma
# UO-31 renal = system: UO-31 renal
smiles,measurement,setting,value
Cc1cn(-c2cccc(NC(=O)c3ccc(C)c(Nc4nccc(-c5cccnc5)n4)c3)c2)cn1,GI50,A498 renal,10900 nM
same,TGI,A498 renal,23000 nM
same,GI50,A549 NSCLC,1550 nM
same,TGI,A549 NSCLC,3340 nM
same,GI50,ACHN renal,1690 nM
same,TGI,ACHN renal,3170 nM
same,GI50,BT-549 breast,1490 nM
same,TGI,BT-549 breast,3110 nM
same,GI50,CAKI-1 renal,1600 nM
same,TGI,CAKI-1 renal,3050 nM
same,GI50,CCRF-CEM leukemia,1230 nM
same,TGI,CCRF-CEM leukemia,10900 nM
same,GI50,COLO 205 colon,2090 nM
same,TGI,COLO 205 colon,3650 nM
same,GI50,DU-145 prostate,3730 nM
same,TGI,DU-145 prostate,17900 nM
same,GI50,EKVX NSCLC,2160 nM
same,TGI,EKVX NSCLC,6000 nM
same,GI50,HCC-2998 colon,3050 nM
same,TGI,HCC-2998 colon,8020 nM
same,GI50,HCT-116 colon,1640 nM
same,TGI,HCT-116 colon,3050 nM
same,GI50,HCT-15 colon,2730 nM
same,TGI,HCT-15 colon,8260 nM
same,GI50,HL-60(TB) leukemia,4610 nM
same,TGI,HL-60(TB) leukemia,19800 nM
same,GI50,HOP-62 NSCLC,2000 nM
same,TGI,HOP-62 NSCLC,3770 nM
same,GI50,HOP-92 NSCLC,1180 nM
same,TGI,HOP-92 NSCLC,2510 nM
same,GI50,HS 578T breast,1770 nM
same,TGI,HS 578T breast,5430 nM
same,GI50,HT29 colon,1980 nM
same,TGI,HT29 colon,3740 nM
same,GI50,IGROV1 ovarian,2080 nM
same,TGI,IGROV1 ovarian,3920 nM
same,GI50,K-562 leukemia,1470 nM
same,TGI,K-562 leukemia,4170 nM
same,GI50,KM12 colon,2100 nM
same,TGI,KM12 colon,4980 nM
same,GI50,LOX IMVI melanoma,1730 nM
same,TGI,LOX IMVI melanoma,3480 nM
same,GI50,M14 melanoma,2080 nM
same,TGI,M14 melanoma,5470 nM
same,GI50,MALME-3M melanoma,1510 nM
same,TGI,MALME-3M melanoma,2990 nM
same,GI50,MCF7 breast,1940 nM
same,TGI,MCF7 breast,4740 nM
same,GI50,MDA-MB-231 breast,1630 nM
same,TGI,MDA-MB-231 breast,3460 nM
same,GI50,MDA-MB-435,1860 nM
same,TGI,MDA-MB-435,3870 nM
same,GI50,MOLT-4 leukemia,1920 nM
same,TGI,MOLT-4 leukemia,6560 nM
same,GI50,NCI-H226 lung,1590 nM
same,TGI,NCI-H226 lung,3320 nM
same,GI50,NCI-H23 lung,3010 nM
same,TGI,NCI-H23 lung,10000 nM
same,GI50,NCI-H460 lung,1970 nM
same,TGI,NCI-H460 lung,4050 nM
same,GI50,NCI-H522 lung,1440 nM
same,TGI,NCI-H522 lung,3070 nM
same,GI50,NCI/ADR-RES ovarian,2830 nM
same,TGI,NCI/ADR-RES ovarian,10100 nM
same,GI50,OVCAR-3 ovarian,1950 nM
same,TGI,OVCAR-3 ovarian,3840 nM
same,GI50,OVCAR-4 ovarian,1710 nM
same,TGI,OVCAR-4 ovarian,3110 nM
same,GI50,OVCAR-5 ovarian,1880 nM
same,TGI,OVCAR-5 ovarian,3680 nM
same,GI50,OVCAR-8 ovarian,1100 nM
same,TGI,OVCAR-8 ovarian,2500 nM
same,GI50,PC-3 prostate,2330 nM
same,TGI,PC-3 prostate,13500 nM
same,GI50,RPMI-8226 leukemia,1870 nM
same,TGI,RPMI-8226 leukemia,5410 nM
same,GI50,RXF 393 renal,1620 nM
same,TGI,RXF 393 renal,3030 nM
same,GI50,SF-268 CNS,2920 nM
same,TGI,SF-268 CNS,9580 nM
same,GI50,SF-539 CNS,1450 nM
same,TGI,SF-539 CNS,2970 nM
same,GI50,SK-MEL-2 melanoma,2580 nM
same,TGI,SK-MEL-2 melanoma,7830 nM
same,GI50,SK-MEL-28 melanoma,1800 nM
same,TGI,SK-MEL-28 melanoma,3180 nM
same,GI50,SK-MEL-5 melanoma,2160 nM
same,TGI,SK-MEL-5 melanoma,7460 nM
same,GI50,SK-OV-3 ovarian,2030 nM
same,TGI,SK-OV-3 ovarian,3520 nM
same,GI50,SN12C renal,2100 nM
same,TGI,SN12C renal,4700 nM
same,GI50,SNB-19 CNS,2400 nM
same,TGI,SNB-19 CNS,> 100000 nM
same,GI50,SNB-75 CNS,1590 nM
same,TGI,SNB-75 CNS,2970 nM
same,GI50,SR leukemia,2080 nM
same,TGI,SR leukemia,5020 nM
same,GI50,SW-620 colon,2250 nM
same,TGI,SW-620 colon,4760 nM
same,GI50,T-47D breast,1420 nM
same,TGI,T-47D breast,9600 nM
same,GI50,TK-10 renal,2040 nM
same,TGI,TK-10 renal,3600 nM
same,GI50,U251 CNS,1690 nM
same,TGI,U251 CNS,3390 nM
same,GI50,UACC-257 melanoma,1590 nM
same,TGI,UACC-257 melanoma,3000 nM
same,GI50,UACC-62 melanoma,1650 nM
same,TGI,UACC-62 melanoma,3350 nM
same,GI50,UO-31 renal,1500 nM
same,TGI,UO-31 renal,3050 nM
